Results taken from patent publication US6416737B1, “Increasing bone strength with selected bisphosphonates” (Board of Trustees of the University of Arkansas, priority 1998, dated 2002).

Columns and labels:
ERK1/2 = ERK1/2 phosphorylation in MLO-Y4 cells by Western blot; assay type: cell-based, murine; details: 10^−7 M
Description: Monolayers were washed with cold 20 mM Tris-HCl (pH 7.5), 150 mM NaCl, 1 mM sodium orthovanadate and lysed in the lysis buffer mentioned above. Insoluble material was pelleted in a microcentrifuge at 14,000×rpm for 10 mn. […] Proteins (10 μg) were separated on 7.5% SDS-polyacrylamide gels and electrotransferred to a polyvinylidene difluoride membrane. Immunoblotting was performed using a mouse monoclonal antibody recognizing tyrosine phosphorylated ERK1/2, or a rabbit polyclonal antibody recognizing total ERK1/2, followed by incubation with either an antimouse or an antirabbit antibody conjugated with horseradish peroxidase. Blots were developed using Chemiluminescence according to the manufacturer's recommendations. Quantitation of the intensity of the bands in the autoradiograms was performed using a scanner (Microtek Lab., Redondo Beach, Calif.).

MLO-Y4 osteocytic cells = details: for inhibition of glucocorticoid-induced apoptosis: then dexamethasone 10^−6 M for 6 h
Description: The murine long bone-derived osteocytic cell line MLO-Y4 was provided by Dr. Lynda Bonewald (University of Texas Health Center at San Antonio, Tex.). Cells were cultured in phenol red-free αMEM supplemented with 5% FBS, 5% bovine calf serum, 100 U/ml penicillin and 100 μg/ml streptomycin. Cells were plated at 1-2×10^4 cells/cm^2 on collagen type I coated plates, as described previously (Kato, et al., 1997. J. Bone Miner. Res. 12:2014-2023). Murine calvaria cells were obtained from neonatal (3- to 6-day old) C57BL/6J mice by controlled digestion with collagenase, as previously described (Bellido, et al., 1997. Endocrinology 138:3666-3676). After isolation, cells were cultured in 10% FBS at 1-2×10^4 cells/cm^2 until 90-95% confluence. Subsequently, cells were harvested and frozen for later use. UMR-106-06 cells were cultured in phenol red-free MEM supplemented with 10% FBS, 1% non-essential aminoacids, 100 U/ml penicillin, and 100 μg/ml streptomycin (Sakagami, et al., Manolagas. 1993. J. Bone Miner. Res. 8:811-816).
Nonadherent cells were combined with adherent cells released from the culture dish using trypsin-EDTA, resuspended in medium containing serum, and collected by centrifugation. […] At least 100 cells per condition were counted.
(§1) MLO-Y4 osteocytic cells and calvaria osteoblastic cells were treated for 1 hour in the absence or presence of different BPs or sCT. Subsequently, dexamethasone, etoposide or TNF-α were added to obtain final concentrations of 10^−6 M, […], or 1 nM, respectively, and cells were incubated for additional 6 h. The effect of PD98059 (50 μM) or UO126 (1 μM) was evaluated by pretreating the cells with the inhibitors for 30 min before adding the BPs or sCT. In the experiment using the membrane permeable caspase inhibitor DEVD, cells were cultured for 1 hour with 50 nM DEVD-CHO and subsequently the pro-apoptotic agents were added to reach the final concentrations indicated above. […] At least 500 cells from fields selected by systematic random sampling were examined for each experimental condition. […] The TUNEL reaction was performed according to the manufacturer's instructions, using 0.15% CuSO4 for color enhancement. Negative controls were made by omitting the transferase from the reaction. Cells presenting brown nuclear staining were considered positive. More than 500 cells per condition were analyzed. Apoptosis of parental MLO-Y4 or calvaria cells was quantified by trypan blue staining (Jilka, et al., 1998. J. Bone Miner. Res. 13:793-802). Nonadherent cells were combined with adherent cells released from the culture dish using trypsin-EDTA, resuspended in medium containing serum, and collected by centrifugation. […] At least 100 cells per condition were counted.
MLO-Y4 cells were incubated for 1 h in vehicle or 50 nM DEVD-CHO. Subsequently, etoposide, TNF-α, or dexamethasone (Dex) were added at final concentrations of 50 μg/ml, 1 nM, or 10^−6 M, respectively, and cells were incubated for additional 6 h. Dead cells were enumerated by trypan blue uptake.
The percentage of dead cells was determined by trypan blue uptake, as in Methods and Materials. Bars represent the mean ±S.D. of three independent measurements.
Subsequently, etoposide, TNF-α, or dexarnethasone were added to reach final concentrations of 50 μg/ml, 1 nM, or 10^−6 M, respectively, and cells were cultured for 6 h, as in FIG. 1. The percentage of dead cells was determined by trypan blue uptake. Bars represent the mean ±S.D. of three independent measurements. Data were analyzed by two-way ANOVA.

[1] = cited from earlier work
osteocytic MLO-Y4 cells = assay: TUNEL reaction in MLO-Y4 cells; assay type: cell-based, murine; details: 10^−7 M alendronate 1 h and/or 10^−6 M dexamethasone 6 h
Description: as §1

[2] = system: osteoblastic cells derived from murine calvaria; assay: Apoptosis of osteoblastic cells derived from murine calvaria by trypan blue uptake; assay type: cell-based; details: 10^−7 M, 1 h pretreatment; 6 h
[3] = system: osteocyte and osteoblast apoptosis in murine vertebral cancellous bone; assay: Murine model of glucocorticoid excess: TUNEL in vertebral bone sections and spinal BMD by DEXA; assay type: in vivo, Male Swiss Webster mice; details: alendronate beginning 3 days before prednisolone pellets
Text: To adjust for the difference in the metabolic rate in mice compared to that in humans, the daily glucocorticoid dose was divided by the metabolic weight, i.e. the weight in kg to the 3/4 power (Borchard, et al., 1992. Drug dosage in laboratory animals: a handbook. CRC Press, Inc., Boca Raton, Fla. 514 pp.; Kleiber, M. 1961. The fire of life: an introduction to animal energetics. New York). […] One control group received saline injections with placebo pellet implantation while another group received saline injections plus prednisolone pellets. Dual-energy X-ray absorptiometry (DEXA) was used to determine spinal bone mineral density (spinal BMD) at the end of the 56-day experiment, as previously described (Weinstein et al., 1998. J. Clin. Invest. 102:274-282).
Sections of vertebral bone (L1 to L5) were mounted on silane-coated glass slides (Scientific Device Lab, Inc., Des Plains, Ill.), deplasticized and incubated in 10 mM citrate buffer, pH 7.6, in a microwave oven at 98° C. for 5 minutes (Jilka, et al., 1998. J. Bone Miner. Res. 13:793-802). Slides were then incubated with 0.5% pepsin for 30 minutes at 37° C. Apoptotic cells were detected by the TUNEL reaction as described above using 0.15% CuSO4 for color enhancement of the diaminobenzidine in sections counterstained with 1% methyl green. The TUNEL reaction is noted within cell nuclei and the cells whose nuclei were clearly brown from the streptavidin-horse radish peroxidase conjugate instead of blue-green from the methyl green were interpreted as positive. Plastic-embledded sections of weaned rat mammary tissue were used as a positive control. Negative controls were made by omitting the transferase from the TUNEL reaction. Morphological changes characteristic of apoptosis were carefully examined to minimize ambiguity regarding the interpretation of results. […] Osteocytes were identified inside lacunae in mineralized bone (FIG. 11A). Osteoblasts were identified as cuboidal cells lining the osteoid-covered trabecular perimeter (FIG. 11B).

[4] = rats, intravenously; cited from earlier work
osteoblast apoptosis = details: intermittent PTH administration in mice; decreased from 1.7-2.2%; cited from earlier work

Description for caspase-3: Caspase-3 activity was measured by determining the degradation of the fluorometric substrate DEVD, that contains acid sequence of the caspase-3 cleavage site in poly(ADP-ribose)polymerase (PARP) (Schlegel, et al., 1996. J. Biol. Chem. 271:1841-1844) conjugated with 7-amino-4-trifluoromethyl coumarin (DEVD-AFC). Cells were lysed in 20 mM Tris-HCl (H 7.5), 150 mM NaCl, 1 mM EDTA, 10 mM NaF, 1 mM sodium orthovanadate, 5 μg/ml leupeptin, 0.14 U/ml aprotinin, 1 mM phenylmethylsulfonylfluoride, and 1% Triton X-100. Protein concentration was measured using a Bio-Rad detergent compatible kit (Hercules, Calif.). Lysates (100 μg protein) were incubated with 50 μM DEVD-AFC in 50 mM HEPES, pH 7.4, 100 mM NaCl, 0.1% CHAPS, 10 mM DTT, 1 mM EDTA, 10% glycerol, in the absence or presence of the irreversible inhibitor DEVD-CHO for 60 min. The released fluorescent AFC was measured in a microplate fluorescence reader FL500 (Bio Tek Instruments, Winooski, Vt.) with excitation/emission wavelengths of 340/542 nm.
Caspase-3 activity was determined by measuring the degradation of the fluorometric substrate DEVD-AFC in the absence or presence of the irreversible inhibitor DEVD-CHO, as detailed in Example 5.

## CC(O)(P(=O)(O)O)P(=O)(O)O [etidronate]
ERK1/2
  phosphorylation of ERK 1 and 2: increase in the phosphorylated fraction of ERKs
MLO-Y4 osteocytic cells; 1 h pretreatment
  inhibition of glucocorticoid-induced apoptosis: Comparable responses
[1]; after one year of treatment
  reduction of resorption depth in human iliac trabecular bone: ~30%

## NCCCC(O)(P(=O)(O)O)P(=O)(O)O [alendronate, 4-amino-1-hydroxybutylidene-1,1-bisphosphonate]
Osteocytic MLO-Y4 cells
  % of TUNEL positive cells: 6.16%
  Number of TUNEL positive cells: 35
  number of TUNEL negative cells: 533
ERK1/2
  earliest time at which increased ERK phosphorylation was observed: 0.5 min
  phosphorylation of ERK 1 and 2: rapid and transient increase
caspase-3; 10^−7 M alendronate 1 h, then 10^−6 M dexamethasone 16 h
  dexamethasone-induced increase in caspase-3 activity: inhibited the dexamethasone-induced increase in caspase-3 activity
caspase-3; alendronate alone, absence of dexamethasone
  caspase-3 activity, TUNEL positive cells and number of living cells: did not affect any of these parameters
[2]
  inhibition of apoptosis of osteoblastic cells induced by dexamethasone, TNF-α and etoposide: inhibited apoptosis
MLO-Y4 osteocytic cells; 10^−6 M dexamethasone 24 h, 10^−7 M alendronate 1 h pretreatment
  number of living MLO-Y4 cells: abolished this effect
MLO-Y4 osteocytic cells; 10^−7 M, 1 h pretreatment, 6 h
  prevention of apoptosis induced by etoposide or TNF-α: prevented apoptosis
MLO-Y4 osteocytic cells; 10^−10 to 10^−3 M
  cell viability in the absence of pro-apoptotic stimuli: did not affect cell viability
MLO-Y4 osteocytic cells; 1 h pretreatment
  inhibition of glucocorticoid-induced apoptosis: Comparable responses
[3]
  bone loss induced by the glucocorticoid: prevented the bone loss
  increase in bone cell apoptosis induced by the glucocorticoid: abolished the increase in bone cell apoptosis

## [F-].[Na+] [sodium fluoride]
[1]; for at least four years
  increase in vertebral bone mass: 10 % a year

## CC(=O)N[C@@H](CS)C(=O)O [N-acetylcysteine, acetarnido-mercaptopropionic acid]
[4]
  LD50: 1140 mg/kg

B1: PTH: parathyroid hormone, intermittent administration (protein, UniProt P01270 32-115, looked up)
Parathyroid hormone: SVSEIQLMHNLGKHLNSMERVEWLRKKLQDVHNFVALGAPLAPRDAGSQRPRKKEDNVLVESHEKSLGEADKADVNVLTKAKSQ
modifications: Parathyroid hormone
notes: parathyroid hormone, intermittent administration
Osteoblast apoptosis
  prevalence of osteoblast apoptosis: 0.1-0.4%
